# Like-named read-outs stand apart in the source and are kept apart here.
# Tests used:
# human γ-globin mRNA = test: Human γ-globin mRNA synthesis in βYAC transgenic mice; assay type: in vivo; conditions: IP 500 mg/kg/day
# From the text: Transgenic mice containing the human β globin gene locus in a yeast artificial chromosome (βYAC) displaying the correct developmental regulation of ε-, γ-, and β-globin genes (with a silenced y-globin gene in the adult stage) were used to study the effects of DMB on γ-globin induction and erythroid cell production. In the μLCR-human A γ-globin transgenic mice, the y-globin mRNA expression relative to murine α-globin mRNA was increased by a mean of 1.8-fold above the baseline after treatment with DMB. In the βYAC transgenic mice at intraperitoneal (IP) doses of 500 mg/kg/day, DMB induced a 2-fold increase in human γ-globin mRNA synthesis relative to that of total non-α-globin. This level of induction was similar to that seen with 1,000 mg/kg/day of butyrate, and the changes were observed from 3 days after treatment initiation and persisted until 3 to 5 days after treatment termination.
# hERG channels = target: T1, hERG channels (Homo sapiens, UniProt Q12809); test: hERG channel, voltage-clamped human embryonic kidney cells; assay type: cell-based; conditions: concentrations up to 1 mM (138 μg/mL)
# T1 construct: expressed in transfected cells
# Experimental: Cardiovascular safety pharmacology assessments included an in vitro screen to evaluate the effects of DMB on cardiac ion channel and an in vivo evaluation of cardiovascular and hemodynamic effects in Beagle dogs. Electrophysiologic effects were evaluated in laboratory studies utilizing voltage-clamped human embryonic kidney cells transformed by adenovirus cDNA and transfected with cDNA in order to stably express the human ether a-go-go related gene (hERG). The effect on cellular hERG channels was evaluated at DMB concentrations up to 1 mM (138 μg/mL).
# in vivo = test: in vivo; parameters: species or system Beagle dogs; conditions: Beagle, dog; for AUC(0-inf): both sexes, po
# Experimental: DMB was administered orally by capsule to Beagle dogs for 26 weeks at dose levels of 0, 50, 150 and 300 mg/kg/day. Plasma levels were measured at 1 to 24 hours post-dose on Days 1 and 181. Peak plasma concentrations were measured at 1 to 4 hour postdose on Day 0, and at 1 to 8 hours postdose during Week 26. Systemic exposure increased with increasing dose level and was greater than dose-proportional on Day 0 and Week 26. […] The peak and extent of systemic exposure of Beagle dogs to DMB were similar in males and females. Systemic exposure values at Week 26 were 138 to 153% of the values at Day 0 for 50 mg/kg, 130% for 150 mg/kg, and 100 to 102% 300 mg/kg dose levels, indicating an accumulation of DMB during this time period for the 50 and 150 mg/kg dose levels and no accumulation at the 300 mg/kg dose level.
# Toxicokinetic information from the 26-week rat (Table 7) and 26-week dog toxicity studies (Table 8) are compared to systemic exposure (AUC) levels determined in a clinical study.
# [1] = system: micronucleated erythrocytes (PCEs); conditions: rat, in vivo
# Experimental: The potential for DMB to induce formation of micronuclei in vivo was evaluated as part of the initial 14-Day toxicity repeat dose toxicity study in rats administered doses of 0, 200, 600 and 1,000 mg/kg/day for 14 days.
# [2] = Phase 1 repeat-dose clinical study, pharmacokinetics; assay type: in vivo, human; conditions: for AUC(0-t): read-out: AUC0-24
# Experimental: DMB was evaluated in a phase 1, placebo-controlled, randomized, repeat dose clinical study that evaluated tolerability, safety, and pharmacokinetics in healthy volunteers. A total of 41 subjects (31 receiving active drug and 10 receiving placebo) completed 14 consecutive days of study medication at daily dose levels of 5, 10 or 15 mg/kg (10 subjects received placebo). Given the importance of iron in red blood cell production, and the requirement for iron supplementation for induction of HbF with other erythropoietic agents, subjects at all 3 dose levels received oral ferrous gluconate on the study medication days. DMB was administered with food to all but one group (5 mg/kg, cohort 1). Subjects were admitted and observed for 24 hours following initial dosing. Thereafter, the study drug was taken once per day at home, except for the last study day. The subjects were monitored weekly for 6 weeks. Thirty-seven subjects completed the study and 4 subjects dropped out due to conflicts. Safety and PK data are available on these subjects.
# The treatment groups included: Cohort 1: 5 mg/kg fasting, 6 active, 2 placebo; Cohort 2: 5 mg/kg with food, 7 active, 2 placebo (3 drop outs); Cohort 3: 5 mg/kg with food and iron supplements, 6 active, 2 placebo (1 drop out); Cohort 4: 10 mg/kg with food and iron supplements, 6 active, 2 placebo; and Cohort 5: 15 mg/kg with food and iron supplements, 6 active, 2 placebo. Subjects in Cohorts 3, 4, and 5 received a single daily dose of ferrous gluconate (325 mg). The iron supplement was administered to evaluate study medication tolerability when taken with iron. No subjects discontinued due to AEs or safety concerns. Fewer subjects reported an event in the highest dose cohort following eating a meal ([…]) than were reported in the lower dose cohorts ([…], 5 and 10 mg/kg).
# Pharmacokinetic (PK) analyses of individual subject plasma concentration-time data were conducted for Day 0 (first dose) and Day 13 (at steady-state) in the multi-dose study. […] Analysis of PK data has shown that plasma drug levels >20 ug/mL persist for greater than 10 hours at the 10 and 15 mg/kg dose levels.
# clinical = conditions: human, in vivo
# Experimental: Patients were monitored every 2 weeks for laboratory studies, physical examinations, and adverse events. Further, patients were followed for hematologic parameters primarily focusing on hemoglobin and fetal hemoglobin (HbF). In addition, pharmacokinetic samples were obtained on Day 0 and 13, at pre-dose and 2, 4, 6, 8, 12, and 24 hours post-dosing. Hemoglobin was measured at each site using standard hematology equipment. HbF was measured using Varian HPLC. […] Adverse events in treated subjects included headache, upper respiratory infection, pyrexia, fatigue, nausea, and dizziness, but the rates of such events were not markedly different from those observed in the placebo-treated subjects.
# A noncompartmental PK analysis was conducted using steady state concentration-time data for Day 13.
# T1 sequence (Q12809 whole entry): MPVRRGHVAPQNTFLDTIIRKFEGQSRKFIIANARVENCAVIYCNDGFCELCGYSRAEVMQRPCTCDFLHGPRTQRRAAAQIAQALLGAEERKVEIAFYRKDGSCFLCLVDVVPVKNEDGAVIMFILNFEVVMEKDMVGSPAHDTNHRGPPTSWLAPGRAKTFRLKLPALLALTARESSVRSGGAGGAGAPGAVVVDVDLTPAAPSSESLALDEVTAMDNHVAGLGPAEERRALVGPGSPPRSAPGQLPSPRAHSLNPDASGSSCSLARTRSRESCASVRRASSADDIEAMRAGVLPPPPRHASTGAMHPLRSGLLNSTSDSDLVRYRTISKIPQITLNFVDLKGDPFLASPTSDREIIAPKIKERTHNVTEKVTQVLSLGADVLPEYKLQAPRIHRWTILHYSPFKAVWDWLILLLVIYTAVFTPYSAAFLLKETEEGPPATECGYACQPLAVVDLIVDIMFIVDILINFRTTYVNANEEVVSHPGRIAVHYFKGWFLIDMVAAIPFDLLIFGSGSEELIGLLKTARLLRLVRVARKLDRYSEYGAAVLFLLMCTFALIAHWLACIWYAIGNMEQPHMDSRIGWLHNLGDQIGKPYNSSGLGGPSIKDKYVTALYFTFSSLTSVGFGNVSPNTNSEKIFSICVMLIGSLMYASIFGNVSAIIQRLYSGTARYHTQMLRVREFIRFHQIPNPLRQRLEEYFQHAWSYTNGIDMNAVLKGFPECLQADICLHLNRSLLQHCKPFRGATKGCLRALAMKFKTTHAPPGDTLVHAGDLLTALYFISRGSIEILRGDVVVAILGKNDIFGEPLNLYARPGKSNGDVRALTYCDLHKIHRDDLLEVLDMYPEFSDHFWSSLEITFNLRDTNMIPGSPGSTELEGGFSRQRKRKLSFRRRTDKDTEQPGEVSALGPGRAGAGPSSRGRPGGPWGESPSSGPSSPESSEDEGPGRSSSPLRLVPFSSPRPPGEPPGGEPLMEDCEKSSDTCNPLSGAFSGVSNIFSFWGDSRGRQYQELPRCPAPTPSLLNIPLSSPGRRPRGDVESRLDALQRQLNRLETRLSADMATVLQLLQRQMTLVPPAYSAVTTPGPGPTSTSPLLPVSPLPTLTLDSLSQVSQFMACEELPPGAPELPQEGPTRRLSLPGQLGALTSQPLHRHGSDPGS
compound,measurement,setting,value
"CCC(C)(C)C(=O)[O-].[Na+] [DMB, Sodium 2,2-dimethylbutyrate]",increase in human γ-globin mRNA synthesis relative to total non-α-globin,human γ-globin mRNA,2 fold
same,activity on hERG channel function,hERG channels,essentially no activity
same,AUC(0-inf),in vivo; 50 mg/kg,127 µg·h/mL
same,AUC(0-inf),in vivo; 150 mg/kg,473 µg·h/mL
same,AUC(0-inf),in vivo; 300 mg/kg,1470 µg·h/mL
same,increase in exposure values for a 6-fold increase in dose (50 to 300 mg/kg/day),in vivo; female,10.31 fold
same,increase in exposure values for a 6-fold increase in dose (50 to 300 mg/kg/day),"in vivo; female, 26 weeks",7.58 fold
same,increase in exposure values for a 6-fold increase in dose (50 to 300 mg/kg/day),in vivo; male,12.85 fold
same,increase in exposure values for a 6-fold increase in dose (50 to 300 mg/kg/day),"in vivo; male, 26 weeks",8.35 fold
same,plasma levels of DMB at which micronucleus activity occurred,"[1]; male, Sprague Dawley",exceeding 500 μg/mL
same,"micronucleated PCEs, mean","[1]; male, Sprague Dawley, 14 days","3.3±0.16 MN PCEs/1,000 PCEs"
same,frequency of micronucleated erythrocytes (PCEs) compared to controls,[1],statistically significant increase
same,increase in micronucleated PCEs in female groups,[1],not observed
same,percent PCEs,[1],no effect
same,potential to cause genotoxicity (weight of evidence),[1],limited potential to cause genotoxicity
same,time for which plasma drug levels >20 ug/mL persist,[2]; 10 and 15 mg/kg dose levels,greater than 10 hours
same,time for which targeted plasma drug levels were maintained,[2]; 10 and 15 mg/kg dose levels,more than 10 hours
same,AUC(0-t),"[2]; human, plasma, oral, 5 mg/kg, Day 0, fed, with iron",226 µg·h/mL
same,Cmax,"[2]; human, plasma, oral, 5 mg/kg, Day 0, fed, with iron, read-out: mean plasma Cmax",16300 ng/mL
same,AUC(0-t),"[2]; human, plasma, oral, 5 mg/kg, Day 0, without iron",241 µg·h/mL
same,Cmax,"[2]; human, plasma, oral, 5 mg/kg, Day 0, without iron, read-out: Average Cmax",17700 ng/mL
same,Cmax,"[2]; human, plasma, oral, 5 mg/kg, Day 13, fed, with iron, read-out: Cmax",24800 ng/mL
same,AUC,"[2]; human, plasma, oral, 5 mg/kg, Day 13, with iron",360 µg·h/mL
same,AUC,"[2]; human, plasma, oral, 5 mg/kg, Day 13, without iron",312 µg·h/mL
same,Cmax,"[2]; human, plasma, oral, 5 mg/kg, Day 13, without iron, read-out: Average Cmax",22400 ng/mL
same,AUC(0-t),"[2]; human, plasma, oral, 10 mg/kg, Day 0, fed",441 µg·h/mL
same,Cmax,"[2]; human, plasma, oral, 10 mg/kg, Day 0, fed, read-out: mean plasma Cmax",30600 ng/mL
same,AUC,"[2]; human, plasma, oral, 10 mg/kg, Day 13",538 µg·h/mL
same,Cmax,"[2]; human, plasma, oral, 10 mg/kg, Day 13, read-out: Cmax",35700 ng/mL
same,AUC(0-t),"[2]; human, plasma, oral, 15 mg/kg, Day 0, fed",697 µg·h/mL
same,Cmax,"[2]; human, plasma, oral, 15 mg/kg, Day 0, fed, read-out: mean plasma Cmax",48300 ng/mL
same,AUC,"[2]; human, plasma, oral, 15 mg/kg, Day 13",958 µg·h/mL
same,Cmax,"[2]; human, plasma, oral, 15 mg/kg, Day 13, read-out: Cmax",67600 ng/mL
same,Tmax,"[2]; human, plasma, oral, all dose levels, both days, dosing with food",2.5 to 4.4 h
same,half-life,"[2]; human, plasma, oral, doses of 10 and 15 mg/kg, read-out: mean T1/2 (converted)",11 h
same,Tmax,clinical,2.5 to 3.1 h
same,half-life,clinical; 10 mg/kg,12.1 h
same,half-life,clinical; 40 mg/kg,10.3 h

# Reference: US8618068B2, “Methods and low dose regimens for treating red blood cell disorders” (priority 2009, dated 2013)
